Read-outs that look alike come from different tables or passages of the source.
Key:
[1] = test system: anemic or thrombocytopenic subjects with myelofibrosis previously treated with ruxolitinib; conditions: Harrison et al., cited from earlier work
[2] = test system: anemic or thrombocytopenic subjects with myelofibrosis previously treated with ruxolitinib; assay: SIMPLIFY-2 Phase 3 trial, MMB versus best available therapy (BAT); assay type: in vivo, human; conditions: for Response Ratio (MMB/Control): TI response at week 24, MMB/BAT
Source text: In the SIMPLIFY-2 trial (NCT02101268; GS-US-352-1214), the efficacy and safety of MMB versus best available treatment (BAT) was studied in anemic or thrombocytopenic subjects with myelofibrosis who were previously treated with ruxolitinib (RUX). There was no lower limit for the required baseline platelet count. […] The primary endpoint was a reduction by at least 35% in the spleen volume at 24 weeks compared with baseline.
(§1) The relationship between W24 response and overall survival (OS) was explored in patients randomized to MMB in the SIMPLFY-1 (S1) and SIMPLIFY-2 (S2) trials.
(§2) Responders were defined as follows: • W24 TI response (TI-R): no RBC transfusion within ?12 weeks immediately prior to W24, with Hgb≥8 g/dL • W24 spleen response: ≥35% spleen volume reduction vs baseline (BL) • W24 symptom response: ≥50% reduction in MFSAF total symptom score vs BL
(§3) Survival from baseline was estimated using K-M analysis with descriptive log-rank tests for comparison applied (all p values are descriptive). Hazard ratios were computed using proportional hazard regression. To adjust for the time to response bias, overall survival from W24 was also compared. As patients randomized to the control arm in both studies and crossed over to open label MMB after 24 weeks of randomized treatment, a valid comparison of overall survival with patients randomized to RUX or BAT/RUX vs MMB was not possible, therefore, only the MMB arm was analyzed.
(§4) Based on the findings from the Phase 2 translational biology study we retrospectively analyzed the relationship between serum ferritin, hepcidin and C-reactive protein (CRP) and the W24 TI response rates for patients randomized to MMB and RUX in the S1 study using univariate analyses and multiple logistic regression models. These findings were then independently confirmed in the previously RUX treated patients in S2.

[3] = test system: patients with myelofibrosis naïve to treatment with a JAK inhibitor; conditions: Mesa et al., cited from earlier work
[4] = test system: myelofibrosis patients with low platelet counts; assay: Re-analysis of the data from the SIMPLIFY-1 and SIMPLIFY-2 trials by platelet count; assay type: in vivo, human; conditions: patients whose platelet counts are 150×109 per liter or below
[5] = test system: transfusion-dependent myelofibrosis patients; conditions: Oh et al. 2020, cited from earlier work
[6] = test system: patients with myelofibrosis naïve to treatment with a JAK inhibitor; assay: SIMPLIFY-1 Phase 3 trial, MMB versus RUX, 24 weeks randomized treatment; assay type: in vivo, human; conditions: for Response Ratio (MMB/Control): TI response at week 24, MMB/RUX; for 3-year survival: patients randomized to MMB; for Week 24 TI response rate: patients with baseline anemia; for mean ferritin change at W24 from baseline: serum ferritin, irrespective of baseline ferritin
Procedure: In the SIMPLIFY-1 trial (NCT01969838; GS-US-352-0101), the efficacy and safety of MMB versus ruxolitinib (RUX) was studied in patients with myelofibrosis who were naïve to treatment with a JAK inhibitor. Patients (N=432) with high risk or intermediate-2 risk or symptomatic intermediate-1 risk myelofibrosis received 24 weeks of treatment with 200 mg MMB once daily or 20 mg RUX twice a day (or per label), after which all patients could receive open-label momelotinib. […] The primary endpoint was a reduction by at least 35% in the spleen volume at 24 weeks compared with baseline.
as §1, §2, §3, §4

Structure (SMILES): Cl.N#CCNC(=O)c1ccc(-c2ccnc(Nc3ccc(N4CCOCC4)cc3)n2)cc1 [MMB, N-(cyanomethyl)-4-(2-(4-morpholinophenylamino)pyrimidin-4-yl)benzamide]
- total symptom score (TSS) response ([1]; compared to BAT group): greater
- transfusion dependence ([1]; compared to BAT group): lower
- transfusion independence ([1]; compared to BAT group): higher
- transfusions ([1]; compared to BAT group): fewer
- reduction of spleen size (primary endpoint) ([1]; vs BAT): not superior to BAT
- overall survival hazard ratio (HR) ([2]; MMB symptom (TSS) responders vs TSS nonresponders): 0.67
- Response Ratio (MMB/Control) ([2]; baseline ferritin <90 ng/mL): 1.1429
- Response Ratio (MMB/Control) ([2]; baseline ferritin ≥90 ng/mL): 3.7949
- overall survival hazard ratio (HR) ([2]; all patients randomized to MMB, W24 TI responders vs TI non-responders): 0.57
- transfusion dependence rate ([3]; compared to RUX): decreased
- transfusion independence rate ([3]; compared to RUX): increased
- transfusion rate ([3]; compared to RUX): reduced
- reduction of spleen size (primary endpoint) ([3]; vs RUX, JAKi-naïve patients, 24 weeks): noninferior to RUX
- total symptom score (TSS) response (secondary endpoint) ([3]; vs RUX): non-inferiority was not demonstrated
- reducing spleen size (SSR), improving total symptom scores (TSS), improving transfusion independence rates [4]: effective
- thrombocytopenia [4]: without momelotinib administration causing thrombocytopenia
- hepcidin [5]: acutely and chronically suppresses elevated levels of hepcidin
- hepcidin ([5]; listed as momelotinib): inhibited
- transfusion dependency ([5]; transfusion-dependent myelofibrosis patients): reversed or reduced
- overall survival hazard ratio (HR) ([6]; MMB W24 spleen responders vs nonresponders): 0.59
- overall survival hazard ratio (HR) ([6]; MMB W24 symptom (TSS) responders vs nonresponders): 0.66
- overall survival hazard ratio (HR) ([6]; MMB patients with anemia at baseline, W24 TI-R vs nonresponders): 0.32
- W24 TI-R rate ([6]; MMB vs RUX, irrespective of baseline anemia, platelet count or transfusion status (FIGS. 1-3)): higher in patients randomized to MMB vs RUX
- Response Ratio (MMB/Control) ([6]; baseline ferritin <90 ng/mL): 1.0843
- Response Ratio (MMB/Control) ([6]; baseline ferritin ≥90 ng/mL): 1.7538
- overall survival hazard ratio (HR) ([6]; all patients randomized to MMB, W24 TI responders vs TI nonresponders): 0.30
- stabilizing ferritin over time ([6]; compared to RUX (FIGS. 12 and 13)): more effective at stabilizing ferritin over time when compared to RUX
- W24 TI-R by baseline ferritin cohort ([6]; each ferritin cohort (FIG. 14)): superior to RUX for each ferritin cohort
- W24 TI-R by baseline ferritin cohort ([6]; ferritin levels exceed 650 ng/mL (FIG. 14)): nominally better than RUX
- 3-year survival ([6]; TI nonresponders at W24): 50%
- 3-year survival ([6]; TI responders at W24): 80%
- Week 24 TI response rate [6]: 45%
- mean ferritin change at W24 from baseline [6]: +13.8 ng/mL

Structure (SMILES): N#CC[C@H](C1CCCC1)n1cc(-c2ncnc3[nH]ccc23)cn1 [RUX, Ruxolitinib, reference compound]
- Week 24 TI response rate [6]: 26%
- mean ferritin change at W24 from baseline [6]: +226.1 ng/mL

From US20250114371A1, “BIOMARKER AND PATIENT SELECTION IN TREATMENT FOR MYELOFIBROSIS” (GlaxoSmithKline LLC, priority 2021, published 2025)
